# US20230148599A1, “FUNGICIDAL MIXTURES CONTAINING PYRAZOLE DERIVATIVES” (FMC Corporation, priority 2020, published 2023)
# What was measured:
# Type in all cases: in vivo
# Conditions in all cases: 50 ppm, 100 = 100% disease control, 0 = no control
# [1] = system: Puccinia recondita f. sp. tritici; test: Test B: wheat leaf rust, preventive spray on wheat seedlings
# Summary of the method: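 Wheat seedlings were sprayed to run-off with compound suspended at ppm concentrations in acetone/water containing 250 ppm PEG400. The next day they were inoculated with Puccinia recondita f. sp. tritici spores, held saturated at 20 °C for 24 h, then kept 7 days at 20 °C. Disease control was rated 0–100% relative to untreated controls.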
# Phakopsora pachyrhizi = test: Test D: Asian soybean rust, preventive spray on soybean seedlings
# Summary of the method: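 Compounds in acetone/water (50/50) with 250 ppm PEG400, dosed in ppm, sprayed to run-off on soybean seedlings; inoculated with P. pachyrhizi spores next day. Held 24 h at 22 °C in saturated air, then 8 days at 22 °C; visual rating of disease control, 0–100, relative to untreated controls.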
# Septoria tritici = test: Test A: wheat leaf blotch, preventive spray on wheat seedlings
# Summary of the method: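 Wheat seedlings sprayed to run-off with compound suspended in acetone/water with 250 ppm PEG400 surfactant, inoculated next day with Septoria tritici spores. Held 48 h saturated at 24 °C, then 17 days at 20 °C; disease rated 0–100% control relative to controls.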
# Alternaria solani = test: Test F: tomato early blight, preventive spray on tomato seedlings
# Summary of the method: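 Tomato seedlings were sprayed to run-off with compound suspended in acetone/water (50/50) with 250 ppm PEG400 and inoculated with Alternaria solani spores the next day. Plants were held 48 h at 27 °C in saturated humidity, then 3 days at 20 °C. Disease control was rated visually from 0 to 100 against untreated controls.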
# [2] = system: Blumeria graminis f. sp. tritici; test: Test C: wheat powdery mildew, preventive spray on wheat seedlings
# Summary of the method: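 Seedlings were sprayed to run-off with compound suspended (ppm) in 50/50 acetone–water containing 250 ppm PEG400, then spore-dust inoculated the following day. After 8 days at 20° C, disease control was rated visually from 0 to 100 against controls.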
# Botrytis cinerea = test: Test E: tomato Botrytis, preventive spray on tomato seedlings
# Summary of the method: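 Compound suspended in 50/50 acetone/water with 250 ppm PEG400 surfactant and sprayed to run-off on tomato seedlings; Botrytis cinerea spores applied the next day. Incubation 48 h at 20° C in saturated atmosphere, then 3 days at 24° C. Visual rating 0–100% disease control relative to controls.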
SMILES,Test B disease control rating [1] [%],Test D disease control rating (Phakopsora pachyrhizi) [%],Test A disease control rating (Septoria tritici) [%],Test F disease control rating (Alternaria solani) [%],Test C disease control rating [2] [%],Test E disease control rating (Botrytis cinerea) [%]
Cc1nn(C)c(Nc2ccc(OC(F)(F)F)cc2[N+](=O)[O-])c1-c1ccc(F)cc1Cl [compound 94],0,73,73,9,72,0
CCc1nn(C)c(Nc2c(F)cc(F)cc2[N+](=O)[O-])c1-c1ccc(F)cc1Cl [compound 95],100,84,100,99,100,99
Cc1nn(C)c(Nc2c(Cl)cc(Cl)cc2[N+](=O)[O-])c1-c1c(F)cccc1F [compound 96],95,0,100,0,0,80
COc1cc(F)c(Nc2c(-c3c(F)cccc3F)c(C)nn2C)c([N+](=O)[O-])c1 [compound 97],100,96,100,99,100,100
Cc1nn(C)c(Nc2c(F)cc(Cl)cc2[N+](=O)[O-])c1-c1c(F)cccc1F [compound 98],97,0,100,98,93,99
Cc1nn(C)c(Nc2cccc(Cl)c2[N+](=O)[O-])c1-c1c(F)cccc1F [compound 99],0,0,99,0,0,24
Cc1cc(Cl)c(Nc2c(-c3c(F)cccc3F)c(C)nn2C)c([N+](=O)[O-])c1 [compound 100],89,0,100,0,21,26
Cc1nn(C)c(Nc2c(Cl)cc(Cl)cc2[N+](=O)[O-])c1-c1ccc(F)cc1F [compound 101],99,44,100,0,89,99
Cc1nn(C)c(Nc2c(F)cc(Cl)cc2[N+](=O)[O-])c1-c1ccc(F)cc1F [compound 102],100,48,100,99,100,99
CCOc1ccc(Nc2c(-c3ccc(F)cc3Cl)c(C)nn2C)c([N+](=O)[O-])c1 [compound 103],80,0,97,0,50,83
Cc1nn(C)c(Nc2ccc(OC(C)C)cc2[N+](=O)[O-])c1-c1ccc(F)cc1Cl [compound 104],0,0,60,0,72,0
Cc1ccc(Nc2c(-c3c(F)cccc3F)c(C)nn2C)c([N+](=O)[O-])c1 [compound 105],74,0,99,0,86,73
Cc1nn(C)c(Nc2c(Cl)cccc2[N+](=O)[O-])c1-c1ccc(F)cc1Cl [compound 108],100,86,100,77,97,100
Cc1nn(C)c(Nc2c(F)cc(F)cc2[N+](=O)[O-])c1-c1ccc(F)cc1Cl [compound 109],100,93,100,99,100,100
Cc1nn(C)c(Nc2c(Br)cccc2[N+](=O)[O-])c1-c1ccc(F)cc1Cl [compound 110],98,73,100,0,56,99
Cc1nn(C)c(Nc2c(F)cccc2[N+](=O)[O-])c1-c1c(F)cc(C#N)cc1F [compound 114],98,73,100,99,99,100
Cc1nn(C)c(Nc2c(F)cc(Cl)cc2[N+](=O)[O-])c1-c1ccc(C#N)cc1Cl [compound 115],100,77,100,99,94,99
Cc1nn(C)c(Nc2c(Cl)cc(Cl)cc2[N+](=O)[O-])c1-c1ccc(C#N)cc1Cl [compound 116],99,0,99,82,56,63
Cc1cccc([N+](=O)[O-])c1Nc1c(-c2ccc(F)cc2Cl)c(C)nn1C [compound 117],100,0,99,76,95,99
COc1ccc(Nc2c(-c3ccc(F)cc3Cl)c(C)nn2C)c([N+](=O)[O-])c1 [compound 119],100,92,100,99,99,100
Cc1nn(C)c(Nc2c(F)cc(F)cc2[N+](=O)[O-])c1-c1ccc(C#N)cc1Cl [compound 120],100,44,100,99,89,100
